Laboratory results as given in PMC9442423, “Extracellular loop 2 of G protein–coupled olfactory receptors is critical for odorant recognition” (The Journal of Biological Chemistry, 2022).

What was measured:
mOR256-3 [1] = molecular target: T1, mOR256-3 (Mus musculus, UniProt Q0VEF0); assay: CRE-luciferase cAMP reporter in Hana3A cells, dose-response fit; type: cell-based; conditions: agonist, 4 h, 37 °C, 5% CO2
T1 construct: gene Olfr124; full-length receptor from Dr H. Matsunami, expressed in Hana3A cells; surface detected by antirhodopsin antibody
T1 sequence (Q0VEF0 1-315): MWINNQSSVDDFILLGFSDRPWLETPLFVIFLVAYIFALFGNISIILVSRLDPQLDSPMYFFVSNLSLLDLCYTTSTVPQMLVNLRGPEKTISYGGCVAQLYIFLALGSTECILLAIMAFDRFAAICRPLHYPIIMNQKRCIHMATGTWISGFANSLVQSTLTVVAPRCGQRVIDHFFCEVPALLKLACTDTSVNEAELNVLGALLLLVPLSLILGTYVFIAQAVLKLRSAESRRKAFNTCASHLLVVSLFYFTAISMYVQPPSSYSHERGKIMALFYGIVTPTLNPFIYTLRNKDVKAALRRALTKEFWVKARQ

mOR256-3 [2] = molecular target: T1, mOR256-3; assay: CRE-luciferase cAMP reporter in Hana3A cells, inhibition of odorant response; type: cell-based; conditions: antagonist against R-carvone, coumarin and geraniol

Row | SMILES | EC50 (mOR256-3 [1]) | further results
1 | CCCCCCCCO [1-octanol] | Ten odorants activated mOR256-3 in a dose-dependent manner | 
2 | CCCCCC(C)=O [2-heptanone] | Ten odorants activated mOR256-3 in a dose-dependent manner | 
3 | C=C(C)[C@@H]1CC=C(C)C(=O)C1 [R-carvone] | Ten odorants activated mOR256-3 in a dose-dependent manner | 
4 | C=CCOC(=O)Cc1ccccc1 [allyl phenylacetate] | Ten odorants activated mOR256-3 in a dose-dependent manner | 
5 | O=Cc1ccccc1 [benzaldehyde] |  | CRE-luciferase cAMP reporter in Hana3A cells, inhibition of odorant response (mOR256-3 [2]): Benzaldehyde antagonized R-carvone, coumarin, and geraniol
6 | CC(=O)OCc1ccccc1 [benzyl acetate] | Ten odorants activated mOR256-3 in a dose-dependent manner | 
7 | CC(C)=CCCC(C)=CC=O [citral] |  | EC50 (mOR256-3 [1]; E/Z composition of citral not stated): Ten odorants activated mOR256-3 in a dose-dependent manner
8 | O=c1ccc2ccccc2o1 [coumarin] | Ten odorants activated mOR256-3 in a dose-dependent manner | 
9 | CC(C)=CCC/C(C)=C/CO [geraniol] | Ten odorants activated mOR256-3 in a dose-dependent manner | 
10 | CCCCCCCC=O [octanal] | Ten odorants activated mOR256-3 in a dose-dependent manner | 
11 | CCCCCCCC(=O)O [octanoic acid] | Ten odorants activated mOR256-3 in a dose-dependent manner | 
